The values that follow are results of earlier work, collected in patent publication US20100092397A1, “Method For Treatment of COPD and Other Pulmonary Diseases” (Activaero GmbH, priority 2008, published 2010).

Data set [1] deals with subjects with moderate-severe COPD. The conditions noted are these: nebulized ADC4022 12.5 mg twice daily plus budesonide 1 mg twice daily for 4 weeks, versus placebo plus budesonide.
The conditions of data set [2]: systemic (oral or i.v.) administration; levels above this range result in side effects.

As for `Cn1c(=O)c2[nH]cnc2n(C)c1=O` [ADC4022], the lung function result in data set [1] is reported as “stable”.
Take `Cn1c(=O)c2[nH]cnc2n(C)c1=O` [Theophylline, theophylline]: the “recommended effective range, plasma level” value in data set [2] was 10 to 20 mg/L.
